Laboratory results: US12110286B2, “Benzimidazolone derived inhibitors of BCL6” (Cancer Research Technology Limited, priority 2017, dated 2024)

Molecular target: Trx-6×His-BCL6 (human BCL6 BTB domain covering amino-acid sequence 5-129) (Homo sapiens (Human), UniProt P41182)
Assay: HTRF in vitro assay (BCL6 / BCOR-AF633 peptide)
Type: binding
Settings: further generated data; 1 nM Trx-6×His-BCL6, 300 nM BCOR-AF633 peptide, 0.5 nM anti-6×His-Terbium cryptate
Description: The % inhibition at each concentration was calculated by normalising FRET ratio to the appropriate high (DMSO with all reagents) and low (DMSO without BCL6) controls.

Row | Compound | HTRF pIC50
1 | CCN1CCC[C@H]1Cn1c(=O)n(C)c2ccc(Nc3ccnc(Cl)c3C#N)cc21 [Example 25c, (S)-2-chloro-4-((3-((1-ethylpyrrolidin-2-yl)methyl)-1-methyl-2-oxo-2,3-dihydro-1H-benzo[d]imidazol-5-yl)amino)nicotinonitrile] | 5.34
2 | Cn1c(=O)n(CC2CCCCN2CC(F)(F)F)c2cc(Nc3ccnc(Cl)c3C#N)ccc21 (stereo not shown) [Example 25e, 2-chloro-4-((1-methyl-2-oxo-3-((1-(2,2,2-trifluoroethyl)piperidin-2-yl)methyl)-2,3-dihydro-1H-benzo[d]imidazol-5-yl)amino)nicotinonitrile] | 5.37
3 | Cn1c(=O)n(C[C@@H]2CCCN2CCF)c2cc(Nc3ccnc(Cl)c3C#N)ccc21 [Example 25f, (S)-2-chloro-4-((3-((1-(2-fluoroethyl)pyrrolidin-2-yl)methyl)-1-methyl-2-oxo-2,3-dihydro-1H-benzo[d]imidazol-5-yl)amino)nicotinonitrile: formic acid (1:1)] | 5.73
4 | Cn1c(=O)n(C[C@@H]2CCCN2CCO)c2cc(Nc3ccnc(Cl)c3C#N)ccc21 [Example 25g, (S)-2-chloro-4-((3-((1-(2-hydroxyethyl)pyrrolidin-2-yl)methyl)-1-methyl-2-oxo-2,3-dihydro-1H-benzo[d]imidazol-5-yl)amino)nicotinonitrile: formic acid (1:1)] | 5.34
5 | Cn1c(=O)n(C[C@@H]2CCCN2CC(F)F)c2cc(Nc3ccnc(Cl)c3C#N)ccc21 [Example 25i, (S)-2-chloro-4-((3-((1-(2,2-difluoroethyl)pyrrolidin-2-yl)methyl)-1-methyl-2-oxo-2,3-dihydro-1H-benzo[d]imidazol-5-yl)amino)nicotinonitrile] | 5.71
6 | CCNC(C)CCn1c(=O)n(C)c2ccc(Nc3ccnc(Cl)c3C#N)cc21.Cl (stereo not shown) [Example 26a, 2-chloro-4-((3-(3-(ethylamino)butyl)-1-methyl-2-oxo-2,3-dihydro-1H-benzo[d]imidazol-5-yl)amino)nicotinonitrile hydrochloride] | 5.41
7 | C#CCC(C)(O)CCn1c(=O)n(C)c2ccc(Nc3ccnc(Cl)c3C#N)cc21 (stereo not shown) [Example 27a, 2-chloro-4-((3-(3-hydroxy-3-methylhex-5-yn-1-yl)-1-methyl-2-oxo-2,3-dihydro-1H-benzo[d]imidazol-5-yl)amino)nicotinonitrile] | 5.86
8 | COCC(C)(O)CCn1c(=O)n(C)c2ccc(Nc3ccnc(Cl)c3C#N)cc21 (stereo not shown) [Example 27b, 2-chloro-4-((3-(3-hydroxy-4-methoxy-3-methylbutyl)-1-methyl-2-oxo-2,3-dihydro-1H-benzo[d]imidazol-5-yl)amino)nicotinonitrile] | 6.14
9 | CCC(C)(O)CCn1c(=O)n(C)c2ccc(Nc3ccnc(Cl)c3C#N)cc21 (stereo not shown) [Example 27c, 2-chloro-4-((3-(3-hydroxy-3-methylpentyl)-1-methyl-2-oxo-2,3-dihydro-1H-benzo[d]imidazol-5-yl)amino)nicotinonitrile] | 5.93
10 | Cn1c(=O)n(CCC(C)(O)C(F)(F)F)c2cc(Nc3ccnc(Cl)c3C#N)ccc21 (stereo not shown) [Example 27d, 2-chloro-4-((1-methyl-2-oxo-3-(4,4,4-trifluoro-3-hydroxy-3-methylbutyl)-2,3-dihydro-1H-benzo[d]imidazol-5-yl)amino)nicotinonitrile] | 5.70
11 | CC(Cn1c(=O)n(C)c2ccc(Nc3ccnc(Cl)c3C#N)cc21)C(C)(C)O (stereo not shown) [Example 27e, 2-chloro-4-((3-(3-hydroxy-2,3-dimethylbutyl)-1-methyl-2-oxo-2,3-dihydro-1H-benzo[d]imidazol-5-yl)amino)nicotinonitrile] | 5.55

The remaining lines, values ahead:

Row | HTRF pIC50 | Compound
12 | 5.40 | CC(C)C(C)(O)CCn1c(=O)n(C)c2ccc(Nc3ccnc(Cl)c3C#N)cc21 (stereo not shown) [Example 27f, 2-chloro-4-((3-(3-hydroxy-3,4-dimethylpentyl)-1-methyl-2-oxo-2,3-dihydro-1H-benzo[d]imidazol-5-yl)amino)nicotinonitrile]
13 | 6.21 | Cn1c(=O)n(CCC(C)(C)O)c2cc(Nc3ccnc(F)c3Cl)ccc21 [Example 29a, 5-((3-chloro-2-fluoropyridin-4-yl)amino)-3-(3-hydroxy-3-methylbutyl)-1-methyl-1,3-dihydro-2H-benzo[d]imidazol-2-one]
14 | 5.88 | Cn1c(=O)n(CCC(C)(C)O)c2cc(Nc3ccnc(Cl)c3Cl)ccc21 [Example 29b, 5-((2,3-dichloropyridin-4-yl)amino)-3-(3-hydroxy-3-methylbutyl)-1-methyl-1,3-dihydro-2H-benzo[d]imidazol-2-one]
15 | 5.38 | Cn1c(=O)n(CCC(C)(C)O)c2cc(Nc3ccncc3Br)ccc21 [Example 29c, 5-((3-bromopyridin-4-yl)amino)-3-(3-hydroxy-3-methylbutyl)-1-methyl-1,3-dihydro-2H-benzo[d]imidazol-2-one]
16 | 5.48 | Cn1c(=O)n(CCC(C)(C)O)c2cc(Nc3cc(C(F)(F)F)ncc3Cl)ccc21 [Example 29d, 5-((5-chloro-2-(trifluoromethyl)pyridin-4-yl)amino)-3-(3-hydroxy-3-methylbutyl)-1-methyl-1,3-dihydro-2H-benzo[d]imidazol-2-one]
17 | 5.93 | Cn1c(=O)n(CCC(C)(C)O)c2cc(Nc3ccncc3Cl)ccc21 [Example 29e, 5-((3-chloropyridin-4-yl)amino)-3-(3-hydroxy-3-methylbutyl)-1-methyl-1,3-dihydro-2H-benzo[d]imidazol-2-one]
18 | 5.99 | Cn1c(=O)n(CCC(C)(C)O)c2cc(Nc3nc(N4CCCC4=O)ncc3Cl)ccc21 [Example 30b, 5-((5-chloro-2-(2-oxopyrrolidin-1-yl)pyrimidin-4-yl)amino)-3-(3-hydroxy-3-methylbutyl)-1-methyl-1,3-dihydro-2H-benzo[d]imidazol-2-one]
19 | 6.46 | Cn1c(=O)n(CCC(C)(C)O)c2cc(Nc3nc(N4CCC[C@H]4CO)ncc3Cl)ccc21 [Example 31a, (S)-5-((5-chloro-2-(2-(hydroxymethyl)pyrrolidin-1-yl)pyrimidin-4-yl)amino)-3-(3-hydroxy-3-methylbutyl)-1-methyl-1,3-dihydro-2H-benzo[d]imidazol-2-one]
20 | 5.73 | Cn1c(=O)n(CCC(C)(C)O)c2cc(Nc3cc(N4CCC[C@H]4CO)nc4c(C#N)cnn34)ccc21 [Example 31b, (S)-7-((3-(3-hydroxy-3-methylbutyl)-1-methyl-2-oxo-2,3-dihydro-1H-benzo[d]imidazol-5-yl)amino)-5-(2-(hydroxymethyl)pyrrolidin-1-yl)pyrazolo[1,5-a]pyrimidine-3-carbonitrile]
21 | 5.44 | Cn1c(=O)n(CCC2(C)CO2)c2cc(Nc3ccnc(Cl)c3C#N)ccc21 (stereo not shown) [Example 32, 2-chloro-4-((1-methyl-3-(2-(2-methyloxiran-2-yl)ethyl)-2-oxo-2,3-dihydro-1H-benzo[d]imidazol-5-yl)amino)nicotinonitrile]
22 | 5.43 | CN1CC(C)(CCn2c(=O)n(C)c3ccc(Nc4ccnc(Cl)c4C#N)cc32)OC1=O (stereo not shown) [Example 33, 2-chloro-4-((3-(2-(3,5-dimethyl-2-oxooxazolidin-5-yl)ethyl)-1-methyl-2-oxo-2,3-dihydro-1H-benzo[d]imidazol-5-yl)amino)nicotinonitrile]
